The results in this text go back to paper PMC12707294 (Analytical chemistry, 2025).

The Kd is the equilibrium constant for the complex coming apart. The low end stands for higher affinity, the high end for lower affinity.

The assay has as its target hu3F8 Fab. Type of assay: binding.

Regarding GD2 hexasaccharide [GD2os], the affinity, expressed as Kd, was 2.3 ± 0.1 µM.
